Where two headings read alike, the source gives them in different places.
Columns and labels:
[1] = tested on: SARS-CoV-2; test: microbe, parasite or virus in culture; assay type: cell-based; settings: Severe acute respiratory syndrome coronavirus 2, read-out: SARS EC50
[2] = MT4 cytotoxicity (CC50); settings: human, MT4 cells
[3] = tested on: Recombinant Respiratory Syncytial virus strain A2 containing the firefly luciferase reporter (RSV-Fluc); test: microbe, parasite or virus in culture; assay type: cell-based; settings: human respiratory syncytial virus, NHBE
[4] = 72 h, read-out: RSV-Fluc EC50 (NHBE), NHBE cells, three days, Table 2

Row | Compound | EC50 [1] [nM] | CC50 ([2]; MT4 CC50, Table 4) [nM] | EC50 ([3]; read-out: RSV EC50, Table 4) [nM] | CC50 ([2]; MT4 CC50, Table 2a) [nM] | EC50 ([3]; read-out: RSV EC50, Table 2a) [nM] | EC50 [3, 4] [nM]
1 | CCCCCCCCCCCCCCCCCCOC[C@H](COP(=O)(O)OC[C@H]1O[C@@](C#N)(c2ccc3c(N)ncnn23)[C@H](O)[C@@H]1O)OCc1cc(C#N)ccc1OC [Example 104, [(2R,3S,4R,5R)-5-(4-Aminopyrrolo[2,1-f][1,2,4]triazin-7-yl)-5-cyano-3,4-dihydroxy-tetrahydrofuran-2-yl]methyl [(2R)-2-[(5-cyano-2-methoxy-phenyl)methoxy]-3-octadecoxy-propyl] hydrogen phosphate] | 1300 | 2550 | 222 |  |  | 
2 | CCCCCCCCCCCCCCCCOC[C@H](COP(=O)(O)OC[C@H]1O[C@@](C#N)(c2ccc3c(N)ncnn23)[C@H](O)[C@@H]1O)OCc1ccc(C#N)c(F)c1 [Example 113, [(2R,3S,4R,5R)-5-(4-aminopyrrolo[2,1-f][1,2,4]triazin-7-yl)-5-cyano-3,4-dihydroxy-tetrahydrofuran-2-yl]methyl [(2R)-2-[(4-cyano-3-fluoro-phenyl)methoxy]-3-hexadecoxy-propyl] hydrogen phosphate] | 1100 | 5450 | 210 |  |  | 
3 | CCCCCCCCCCCCCCCCCOC[C@H](COP(=O)(O)OC[C@H]1O[C@@](C#N)(c2ccc3c(N)ncnn23)[C@H](O)[C@@H]1O)OCc1ccc(C#N)cc1 [Example 36, ((2R,3S,4R,5R)-5-(4-aminopyrrolo[2,1-f][1,2,4]triazin-7-yl)-5-cyano-3,4-dihydroxytetrahydrofuran-2-yl)methyl ((R)-2-((4-cyanobenzyl)oxy)-3-(heptadecyloxy)propyl) hydrogen phosphate] | 404 |  |  | 530 | 17 | 
4 | CCCCCCCCCCCCCCCCCCOC[C@H](COP(=O)(O)OC[C@H]1O[C@@](C#N)(c2ccc3c(N)ncnn23)[C@H](O)[C@@H]1O)OCc1ccc(C(F)(F)F)nc1 [Example 123, [(2R,3S,4R,5R)-5-(4-Aminopyrrolo[2,1-f][1,2,4]triazin-7-yl)-5-cyano-3,4-dihydroxy-tetrahydrofuran-2-yl]methyl [(2R)-3-octadecoxy-2-[[6-(trifluoromethyl)-3-pyridyl]methoxy]propyl] hydrogen phosphate] | 340 | 1040 | 55 |  |  | 
5 | CCCCCCCCCCCCCCCCCCOC[C@H](COP(=O)(O)OC[C@H]1O[C@@](C#N)(c2ccc3c(N)ncnn23)[C@H](O)[C@@H]1O)OCc1cccc(C(F)F)c1 [Example 32, ((2R,3S,4R,5R)-5-(4-aminopyrrolo[2,1-f][1,2,4]triazin-7-yl)-5-cyano-3,4-dihydroxytetrahydrofuran-2-yl)methyl ((R)-2-((3-(difluoromethyl)benzyl)oxy)-3-(octadecyloxy)propyl) hydrogen phosphate] | 3040 |  |  | 2660 | 64 | 
6 | CCCCCCCCCCCCCCCCOCCCCOP(=O)(O)OC[C@H]1O[C@@](C#N)(c2ccc3c(N)ncnn23)[C@H](O)[C@@H]1O [Example 25, ((2R,3S,4R,5R)-5-(4-aminopyrrolo[2,1-f][1,2,4]triazin-7-yl)-5-cyano-3,4-dihydroxytetrahydrofuran-2-yl)methyl (4-(hexadecyloxy)butyl) hydrogen phosphate] | 7460 |  |  | 48900 | 263 | 70
7 | CCCCCCCCCCCCCCCCCCOCCCOP(=O)(O)OC[C@H]1O[C@@](C#N)(c2ccc3c(N)ncnn23)[C@H](O)[C@@H]1O [Example 59, ((2R,3S,4R,5R)-5-(4-Aminopyrrolo[2,1-f][1,2,4]triazin-7-yl)-5-cyano-3,4-dihydroxytetrahydrofuran-2-yl)methyl (3-(octadecyloxy)propyl) hydrogen phosphate] | 10000 |  |  | 19600 | 171 | 170
8 | CCCCCCCCCCCCCCCCCCOC[C@H](COP(=O)(O)OC[C@H]1O[C@@](C#N)(c2ccc3c(N)ncnn23)[C@H](O)[C@@H]1O)OCc1ccc(C#N)cc1F [Example 53, ((2R,3S,4R,5R)-5-(4-aminopyrrolo[2,1-f][1,2,4]triazin-7-yl)-5-cyano-3,4-dihydroxytetrahydrofuran-2-yl)methyl ((R)-2-((4-cyano-2-fluorobenzyl)oxy)-3-(octadecyloxy)propyl) hydrogen phosphate] | 912 |  |  | 1840 | 32 | 
9 | CCCCCCCCCCCCCCCCCCOC[C@@H](COP(=O)(O)OC[C@H]1O[C@@](C#N)(c2ccc3c(N)ncnn23)[C@H](O)[C@@H]1O)OCc1cc(F)cc(C#N)c1 [Example 93, ((2R,3S,4R,5R)-5-(4-aminopyrrolo[2,1-f][1,2,4]triazin-7-yl)-5-cyano-3,4-dihydroxytetrahydrofuran-2-yl)methyl ((S)-2-((3-cyano-5-fluorobenzyl)oxy)-3-(octadecyloxy)propyl) hydrogen phosphate] | 450 | 1730 | 79 |  |  | 
10 | CCCCCCCCCCCCCCCCCCOC[C@H](COP(=O)(O)OC[C@H]1O[C@@](C#N)(c2ccc3c(N)ncnn23)[C@H](O)[C@@H]1O)OCc1ccc(Cl)c(C#N)c1 [Example 108, [(2R,3S,4R,5R)-5-(4-aminopyrrolo[2,1-f][1,2,4]triazin-7-yl)-5-cyano-3,4-dihydroxy-tetrahydrofuran-2-yl]methyl [(2R)-2-[(4-chloro-3-cyano-phenyl)methoxy]-3-octadecoxy-propyl] hydrogen phosphate] | 220 | 713 | 83 |  |  | 
11 | CCCCCCCCCCCCCCCCCCOC[C@H](COP(=O)(O)OC[C@H]1O[C@@](C#N)(c2ccc3c(N)ncnn23)[C@H](O)[C@@H]1O)Oc1cc(OC)ccn1 [Example 90, ((2R,3S,4R,5R)-5-(4-aminopyrrolo[2,1-f][1,2,4]triazin-7-yl)-5-cyano-3,4-dihydroxytetrahydrofuran-2-yl)methyl ((R)-2-((4-methoxypyridin-2-yl)oxy)-3-(octadecyloxy)propyl) hydrogen phosphate] |  | 383 | 109 |  |  | 
12 | CCCCCCCC/C=C\CCCCCCCCOC[C@H](COP(=O)(O)OC[C@H]1O[C@@](C#N)(c2ccc3c(N)ncnn23)[C@H](O)[C@@H]1O)OCc1cc(F)cc(C#N)c1 [Example 128, ((2R,3S,4R,5R)-5-(4-aminopyrrolo[2,1-f][1,2,4]triazin-7-yl)-5-cyano-3,4-dihydroxytetrahydrofuran-2-yl)methyl ((R)-2-((3-cyano-5-fluorobenzyl)oxy)-3-(((Z)-octadec-9-en-1-yl)oxy)propyl) hydrogen phosphate] |  | 730 | 2 |  |  | 
13 | CCCCCCCCCCCCCCCCCCOC[C@H](COP(=O)(O)OC[C@H]1O[C@@](C#N)(c2ccc3c(N)ncnn23)[C@H](O)[C@@H]1O)Oc1ccc(C#N)c(OCC)c1 [Example 85, ((2R,3S,4R,5R)-5-(4-aminopyrrolo[2,1-f][1,2,4]triazin-7-yl)-5-cyano-3,4-dihydroxytetrahydrofuran-2-yl)methyl ((R)-2-(4-cyano-3-ethoxyphenoxy)-3-(octadecyloxy)propyl) hydrogen phosphate] |  | 143 | 8 |  |  | 
14 | CCCCCCCCCCCCCCCCCCOC[C@H](COP(=O)(O)OC[C@H]1O[C@@](C#N)(c2ccc3c(N)ncnn23)[C@H](O)[C@@H]1O)OCc1cc(F)ccc1C#N [Example 51, ((2R,3S,4R,5R)-5-(4-aminopyrrolo[2,1-f][1,2,4]triazin-7-yl)-5-cyano-3,4-dihydroxytetrahydrofuran-2-yl)methyl ((R)-2-((2-cyano-5-fluorobenzyl)oxy)-3-(octadecyloxy)propyl) hydrogen phosphate] | 1650 |  |  | 2140 |  | 

Source: patent publication US12030904B2 (priority 2020, dated 2024)
